Laboratory results reported in patent publication US6596712B2, “Treatment of carcinomas using squalamine in combination with other anti-cancer agents or modalities” (Genaera Corporation, priority 1996, dated 2003).

Assays:
[1] = tested on: bovine retinal endothelial cells not treated with VEGF; test: Growth of endothelial cells not treated with VEGF; format: cell-based; details: 24 and 48 hours; up to 30 μg/ml
Experimental: In conducting this in vitro analysis, the following cell lines were tested: (a) bovine retinal endothelial cells; (b) 9L and C6 rat glioma cells; (c) human H80 glioma cells; and (d) VX2 rabbit carcinoma cells (the same type as the tumors implanted in the rabbit corneal micropocket assay test described above). The endothelial mitogen which was used in this analysis was VEGF at a concentration of 20 ng/ml.
The cells were allowed to attach overnight to tissue culture plates containing an optimized growth media. Following attachment, the cells were exposed to solvent only or 5 to increasing concentrations of squalamine (0, 10, 20, 30, 60, and 90 μg squalamine/ml). Cell growth was counted daily for three days using a Coulter Counter. A total of 10,000 cells per well were plated and each experimental concentration was tested in quadruplicate. The results were then averaged. The bovine retinal endothelial cells were grown and treated in an identical manner to the other cell lines, […]
Percentage endothelial cell growth inhibition (%I) was determined by the following equation: [formula]

[2] = target: T1, rabbit NHE1 (Oryctolagus cuniculus, UniProt P23791); test: NHE activity, rabbit NHE1; format: cell-based; details: similar tests
T1 construct: expressed in transfected cells

[3] = tested on: LNCaP cells; test: LNCaP cell growth in vitro ([3H]-thymidine incorporation); format: cell-based, human
Experimental: The anti-proliferative effect of squalamine was evaluated in tissue culture by both crystal violet staining and [^3H]-thymidine incorporation, on the LNCaP/C4-2 human prostate cancer progression model. Developed by applicants' laboratory, this lineage-derived cell line recapitulates the progression of human neoplastic prostate disease from an androgen-dependent and minimally metastatic condition (LNCaP cells) to an androgen-independent (defined as being able to proliferate in castrate hosts) and highly aggressive state (C4-2 subline).
In vitro experiments were also conducted with the LNCAP cell line in which cell proliferation as judged by [3H]-thymidine uptake was determined. LNCaP cells were maintained as previously described (cf. J. T. Hsieh et al., Cancer Research 53, 2852-2857 (1993)). Cells were exposed to 20 ng/mL vascular endothelial growth factor (VEGF), 20 μg/mL squalamine or a combination of VEGF and squalamine. […] As a consequence, the mechanism underlying the effectiveness of squalamine treatment of the LNCaP tumor in vivo may under certain conditions also involve direct inhibition of tumor cell growth and/or induction of tumor cell death.

[4] = tested on: 9L gliosarcoma tumors (9L glioma); test: 9L glioma flank study; format: in vivo, Fisher 344 rats; details: Day 25 or 26 after implantation, treatment from Day 5 per Table 4
Experimental: Four groups of rats (twenty total Fisher 344 rats, 200 g) were given s.q. transplants of 1 mm3 9L gliosarcoma tumors (9L glioma) on Day 0. The tumors were implanted in the rat flanks to avoid complications relating to adequate brain levels of squalamine. Randomization and treatment began on Day 5 according to the following scheme:
On Day 25 or 26 after tumor implantation, the tumor size was measured directly. The tumor size (i.e., its volume “V”) was estimated based on volumetric calculations determined from the measured length (“L”), width (“W”), and height (“H”) of the tumor (Vtumor spheroid˜0.5 ×L×W×H). The tumor volumes shown in Table 5 represent the mean tumor volumes for each treatment group for those animals that survived to the end of the experiment.

T1 sequence (P23791 whole entry): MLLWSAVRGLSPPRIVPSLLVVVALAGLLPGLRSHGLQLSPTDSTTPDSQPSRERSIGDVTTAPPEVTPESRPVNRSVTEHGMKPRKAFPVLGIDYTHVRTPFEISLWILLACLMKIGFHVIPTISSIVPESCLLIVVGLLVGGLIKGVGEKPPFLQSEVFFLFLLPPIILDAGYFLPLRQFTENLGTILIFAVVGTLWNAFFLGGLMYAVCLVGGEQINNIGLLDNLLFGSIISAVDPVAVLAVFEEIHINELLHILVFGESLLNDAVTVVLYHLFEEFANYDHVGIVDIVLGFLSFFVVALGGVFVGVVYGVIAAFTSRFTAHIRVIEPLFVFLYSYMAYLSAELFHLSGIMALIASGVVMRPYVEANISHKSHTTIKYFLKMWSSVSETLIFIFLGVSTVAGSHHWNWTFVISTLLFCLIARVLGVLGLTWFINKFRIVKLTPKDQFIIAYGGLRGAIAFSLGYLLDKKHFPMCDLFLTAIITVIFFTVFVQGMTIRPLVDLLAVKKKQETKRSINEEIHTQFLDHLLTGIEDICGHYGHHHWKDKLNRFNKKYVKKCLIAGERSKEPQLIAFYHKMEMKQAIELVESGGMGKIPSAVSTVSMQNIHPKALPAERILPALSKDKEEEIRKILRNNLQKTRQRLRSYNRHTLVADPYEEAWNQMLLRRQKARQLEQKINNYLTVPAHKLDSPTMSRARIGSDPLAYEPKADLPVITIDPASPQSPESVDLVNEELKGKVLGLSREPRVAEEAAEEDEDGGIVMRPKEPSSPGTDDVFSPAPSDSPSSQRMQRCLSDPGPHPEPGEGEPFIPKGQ

## CC(C)[C@@H](CC[C@@H](C)[C@H]1CC[C@H]2[C@@H]3[C@H](O)C[C@H]4C[C@@H](NCCCNCCCCN)CC[C@]4(C)[C@H]3CC[C@]12C)OS(=O)(=O)O [Squalamine, squalamine]
[1]
  cell proliferation by endothelial cells not treated with VEGF: statistically unaffected
[2]
  effect on rabbit NHE1: not affected
[3]; 20 ng/mL VEGF and/or 20 μg/mL squalamine, 24 hours, media containing serum
  Percent of Control [3H]-Thymidine Uptake: 75%
[3]; media containing serum, 20 ng/mL VEGF or 20 μg/mL squalamine
  effect on cell growth alone: minimal effects on cell growth
[3]; no exogenous VEGF
  growth of LNCaP cells, squalamine by itself: nominal effect
[3]; with addition of exogenous VEGF
  LNCaP proliferation: inhibited
[4]
  % Reduction (based on control volume): 81.7%
  Mean Tumor volume: 3,347 mm^3
[4]; listed as squalamine
  % Reduction (based on control volume): 81.7%
